The values that follow are results of earlier work, collected in patent US9012464B2, “Salts and polymorphic forms of Afatinib” (Ratiopharm GmbH, priority 2010, dated 2015).

The conditions of this data set: acid compound used for forming afatinib salts.

As for `O=S(=O)(O)c1ccccc1` [Benzenesulphonic acid], the pKa1 was 0.7.
